Test results from US6908935B2, “Calcium receptor modulating agents” (Amgen Inc., priority 2002, dated 2005).

Each molecule was assayed against T1, human parathyroid cell Ca^2+ receptor (hPCaR) (Homo sapiens, UniProt P41180) (assay: [Ca2+]i measurement with fluo-3 in HEK 293 4.0-7 cells stably transfected with hPCaR). Details: fluo-3 fluorescence (485/530 nm), effect on [Ca^2+]i.
T1 construct: expressed in transfected cells
T1 sequence (P41180 20-1078): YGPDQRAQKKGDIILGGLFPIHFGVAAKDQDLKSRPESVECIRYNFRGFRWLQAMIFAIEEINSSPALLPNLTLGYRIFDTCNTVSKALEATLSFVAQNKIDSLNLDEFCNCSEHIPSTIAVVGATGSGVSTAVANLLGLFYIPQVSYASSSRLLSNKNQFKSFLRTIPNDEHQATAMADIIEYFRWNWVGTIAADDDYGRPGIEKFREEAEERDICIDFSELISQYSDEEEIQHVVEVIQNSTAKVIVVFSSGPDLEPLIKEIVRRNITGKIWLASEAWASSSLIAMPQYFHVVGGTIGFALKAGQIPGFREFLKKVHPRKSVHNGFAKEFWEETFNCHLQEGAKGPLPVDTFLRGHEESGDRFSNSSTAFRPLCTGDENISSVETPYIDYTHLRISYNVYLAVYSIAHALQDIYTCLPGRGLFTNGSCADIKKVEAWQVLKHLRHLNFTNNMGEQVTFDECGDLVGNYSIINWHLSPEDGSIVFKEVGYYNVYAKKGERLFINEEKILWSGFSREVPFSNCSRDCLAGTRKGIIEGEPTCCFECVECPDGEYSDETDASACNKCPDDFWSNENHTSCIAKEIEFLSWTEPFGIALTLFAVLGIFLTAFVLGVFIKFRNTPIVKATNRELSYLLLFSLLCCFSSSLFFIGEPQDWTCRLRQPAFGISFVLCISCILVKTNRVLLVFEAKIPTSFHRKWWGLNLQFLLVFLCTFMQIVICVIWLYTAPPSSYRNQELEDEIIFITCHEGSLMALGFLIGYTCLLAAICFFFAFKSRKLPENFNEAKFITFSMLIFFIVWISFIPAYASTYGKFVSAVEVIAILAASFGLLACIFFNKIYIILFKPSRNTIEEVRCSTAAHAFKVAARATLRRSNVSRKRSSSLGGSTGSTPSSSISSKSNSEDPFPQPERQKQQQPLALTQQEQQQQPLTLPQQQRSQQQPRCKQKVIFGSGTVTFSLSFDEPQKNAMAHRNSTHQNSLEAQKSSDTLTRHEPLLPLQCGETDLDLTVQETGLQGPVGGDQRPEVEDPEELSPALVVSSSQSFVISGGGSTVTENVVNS
Format: cell-based
Outline: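 HEK 293 cells stably expressing human parathyroid Ca2+ receptor (clone 4.0-7), loaded with 2 μM fluo-3 AM for 30 min at 37 °C in parathyroid cell buffer (pH 7.45) with 1 mM CaCl2 and 0.5% BSA. After compound addition, intracellular Ca2+ followed by fluorescence at 485 nm excitation/530 nm emission.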

EC50, ≤ 10 µM:
COc1ccc(-c2cc(CN[C@H](C)c3cccc4ccccc34)ccc2NS(C)(=O)=O)cc1 [N-(4′-(methyloxy)-5-((((1R)-1-(1-naphthalenyl)ethyl)amino)methyl)-1,1′-biphenyl-2-yl)methanesulfonamide]
C[C@@H](NCc1ccc(OC(F)F)c(-c2cccnc2)c1)c1cccc2ccccc12 [(1R)-N-((4-((difluoromethyl)oxy)-3-(3-pyridinyl)phenyl)methyl)-1-(1-naphthalenyl)ethanamine]
COc1ccc(CN[C@H](C)c2cccc3ccccc23)cc1-c1ccc(C)nc1 [(1R)-N-((4-(methyloxy)-3-(6-methyl-3-pyridinyl)phenyl)methyl)-1-(1-naphthalenyl)ethanamine]
COc1cccc(-c2cccc(CN[C@H](C)c3ccc(C)cc3)c2)c1 [(1R)-N-((3′-(methyloxy)-1,1′-biphenyl-3-yl)methyl)-1-(4-methylphenyl)ethanamine]
COc1ccc(CN[C@H](C)c2cccc3ccccc23)cc1-c1nc2ccccc2s1 [(1R)-N-((3-(1,3-benzothiazol-2-yl)-4-(methyloxy)phenyl)methyl)-1-(1-naphthalenyl)ethanamine]
COc1ccc(CN[C@H](C)c2ccccc2)cc1-c1ccc2ocnc2c1 [Example 264, (1R)-N-((3-(1,3-benzoxazol-5-yl)-4-(methyloxy)phenyl)methyl)-1phenylethanamine]
COc1ccc(CN[C@H](C)c2ccccc2)cc1-c1nc2ccccc2s1 [(1R)-N-((3-(1,3-benzothiazol-2-yl)-4-(methyloxy)phenyl)methyl)-1-phenylethanamine]
COc1cccc([C@@H](C)NCc2ccc(OC)c(-c3cccs3)c2)c1 [(1R)-1-(3-(methyloxy)phenyl)-N-((4-(methyloxy)-3-(2-thienyl)phenyl)methyl)ethanamine]
COc1cccc([C@@H](C)NCc2ccc(OC)c(-c3ccc(OC)nc3)c2)c1 [(1R)-N-((4-(methyloxy)-3-(6-(methyloxy)-3-pyridinyl)phenyl)methyl)-1-(3-(methyloxy)phenyl)ethanamine]
COc1ccc(CN[C@H](C)c2ccccc2)cc1-c1ccc(OCCN2CCCC2)nc1 [(1R)-N-((4-(methyloxy)-3-(6-((2-(1-pyrrolidinyl)ethyl)oxy)-3-pyridinyl)phenyl)methyl)-1-phenylethanamine]
COc1cccc([C@@H](C)NCc2ccc(OC)c(-c3ccc(=O)n(C)c3)c2)c1 [1-methyl-5-(2-(methyloxy)-5-((((1R)-1-(3-(methyloxy)phenyl)ethyl)amino)methyl)phenyl)-2(1H)-pyridinone]
COc1ccc(CNC(C)c2cccc(Cl)c2Cl)cc1-c1ccc(C(F)(F)F)cc1 (centres unmarked) [1-(2,3-dichlorophenyl)-N-((6-(methyloxy)-4′-(trifluoromethyl)-1,1′-biphenyl-3-yl)methyl)ethanamine]
COc1cccc([C@@H](C)NCc2ccc(OC)c(-c3cnc(OCC(F)(F)F)nc3)c2)c1 [(1R)-1-(3-(methyloxy)phenyl)-N-((4-(methyloxy)-3-(2-((2,2,2-trifluoroethyl)oxy)-5-pyrimidinyl)phenyl)methyl)ethanamine]
COc1cccc([C@@H](C)NCc2cccc(-c3ccccc3F)c2)c1 [(1R)-N-((2′-fluoro-1,1′-biphenyl-3-yl)methyl)-1-(3-(methyloxy)phenyl)ethanamine]
COc1ccc(CN[C@H](C)c2ccccc2)cc1-c1ccc(OC(F)(F)F)cc1 [(1R)-N-((6-(methyloxy)-4′-((trifluoromethyl)oxy)-1,1′-biphenyl-3-yl)methyl)-1-phenylethanamine]
COc1ccc(CN[C@H](C)c2ccccc2)cc1-c1csc(N)n1 [4-(2-(methyloxy)-5-((((1R)-1-phenylethyl)amino)methyl)phenyl)-1,3-thiazol-2-amine]
CCn1nc2ccc(-c3cc(CN[C@H](C)c4ccccc4)ccc3OC)cc2n1 [(1R)-N-((3-(2-ethyl-2H-1,2,3-benzotriazol-5-yl)-4-(methyloxy)phenyl)methyl)-1-phenylethanamine]
COc1ccc(CN[C@H](C)c2cccc3ccccc23)cc1-c1cccc(C(=O)O)c1 [2′-(methyloxy)-5′-((((1R)-1-(1-naphthalenyl)ethyl)amino)methyl)-1,1′-biphenyl-3-carboxylic acid]
COc1ccc(CN[C@H](C)c2cccc3ccccc23)cc1-c1ccc(=O)n(C)c1 [1-methyl-5-(2-(methyloxy)-5-((((1R)-1-(1-naphthalenyl)ethyl)amino)methyl)phenyl)-2-(1H)-pyridinone]
COc1ccc(CN[C@H](C)c2cccc3ccccc23)cc1C1CCN(C(C)=O)CC1 [(1R)-N-((3-(1-acetyl-4-piperidinyl)-4-(methyloxy)phenyl)methyl)-1-(1-naphthalenyl)ethanamine]
COc1ccc(CN[C@H](C)c2cccc3ccccc23)cc1-c1cnccn1 [(1R)-N-((4-(methyloxy)-3-(2-pyrazinyl)phenyl)methyl)-1-(1-naphthalenyl)ethanamine]
COc1ccc(CN[C@H](C)c2ccccc2)cc1-c1cccnc1N1CCOCC1 [(1R)-N-((4-(methyloxy)-3-(2-(4-morpholinyl)-3-pyridinyl)phenyl)methyl)-1-phenylethanamine]
COc1ccc(-c2cc(CN[C@H](C)c3ccccc3)ccc2O)cc1 [Example 391, 4′-(methyloxy)-5-((((1R)-1-phenylethyl)amino)methyl)-1,1′-biphenyl-2-ol]
Cc1ccc(CN[C@H](C)c2ccccc2)cc1-c1cccnc1 [Example 451, (1R)-N-((4-methyl-3-(3-pyridinyl)phenyl)methyl)-1-phenylethanamine]
COc1ccc(CN[C@H](C)c2ccc3ccccc3c2)cc1-c1cnc(N)nc1 [5-(2-(methyloxy)-5-((((1R)-1-(2-naphthalenyl)ethyl)amino)methyl)phenyl)-2-pyrimidinamine]
COc1ccc(CN[C@H](C)c2ccccc2)cc1-c1ccc2nccn2c1 [(1R)-N-((3-imidazo[1,2-a]pyridin-6-yl-4-(methyloxy)phenyl)methyl)-1-phenylethanamine]
C[C@@H](NCc1cccc(-c2ccc(F)cc2)c1)c1ccccc1 [(1R)-N-((4′-fluoro-1,1′-biphenyl-3-yl)methyl)-1-phenylethanamine]
COc1ccc(CN[C@H](C)c2ccccc2)cc1-c1ccc(S(C)(=O)=O)cc1 [(1R)-N-((6-(methyloxy)-4′-(methylsulfonyl)-1,1′-biphenyl-3-yl)methyl)-1-phenylethanamine]
COc1cccc([C@@H](C)NCc2ccc(OC)c(-c3cccc(OC(F)(F)F)c3)c2)c1 [(1R)-1-(3-(methyloxy)phenyl)-N-((6-(methyloxy)-3′-((trifluoromethyl)oxy)-1,1′-biphenyl-3-yl)methyl)ethanamine]
Cc1noc(C)c1-c1ccc(CN[C@H](C)c2cccc3ccccc23)cc1 [(1R)-N-((4-(3,5-dimethyl-4-isoxazolyl)phenyl)methyl)-1-(1-naphthalenyl)ethanamine]
COc1cccc([C@@H](C)NCc2ccc(OC)c(-c3ccc4[nH]ccc4c3)c2)c1 [(1R)-N-((3-(1H-indol-5-yl)-4-(methyloxy)phenyl)methyl)-1-(3-(methyloxy)phenyl)ethanamine]
C[C@@H](NCc1ccc(OC(F)F)c(-c2cccnc2)c1)c1ccccc1 [(1R)-N-((4-((difluoromethyl)oxy)-3-(3-pyridinyl)phenyl)methyl)-1-phenylethanamine]
COc1ccc(CN[C@H](C)c2ccccc2)cc1-c1ncccn1 [(1R)-N-((4-(methyloxy)-3-(2-pyrimidinyl)phenyl)methyl)-1-phenylethanamine]
COc1cccc([C@@H](C)NCc2cccc(-c3nccs3)c2)c1 [(1R)-1-(3-(methyloxy)phenyl)-N-((3-(1,3-thiazol-2-yl)phenyl)methyl)ethanamine]
COCCn1cc(-c2cc(CN[C@H](C)c3cccc4ccccc34)ccc2OC)ccc1=O [1-(2-(methyloxy)ethyl)-5-(2-(methyloxy)-5-((((1R)-1-(1-naphthalenyl)ethyl)amino)methyl)phenyl)-2(1H)-pyridinone]
